{
  "source": "paper PMC7993375",
  "about": "“Discovery of novel quinoline-based analogues of combretastatin A-4 as tubulin polymerisation inhibitors with apoptosis inducing activity and potent anticancer effect” (Journal of Enzyme Inhibition and Medicinal Chemistry, 2021)",
  "key": {"MCF-7 cells [1]": {"tested_on": "MCF-7 cells", "assay": "Cell cycle analysis (PI, flow cytometry)", "assay_type": "cell-based, human", "details": "for percentage of cells in G0/G1 phase: control 57.3%", "method": "MCF-7 cells were seeded at a density of 1 × 10^5 cells/well in 6-well plates and treated with CA-4 (50 nM) and compound 12c (50 and 250 nM) for 24, 48 and 72 h. The cells were collected by trypsinisation and centrifuged at 800×g for 15 min. Cells were washed twice with ice-cold PBS and fixed in ice-cold 70% ethanol overnight at −20 °C. Fixed cells were centrifuged at 800×g for 15 min and stained with 50 µg/mL of PI, containing 50 µg/mL of DNase-free RNase A, at 37 °C for 30 min. The DNA content of cells (10,000 cells/experimental group) was analysed by flow cytometer at 488 nm using a FACSCalibur flow cytometer (BD Biosciences, San Jose, CA) and all data were recorded and analysed using the CellQuest Software (Becton-Dickinson)."}, "MCF-7 cells [2]": {"tested_on": "MCF-7 cells", "assay": "Annexin V/PI apoptotic assay", "assay_type": "cell-based, human", "details": "for percentage of Annexin V-staining positive cells: 48 h, untreated 1%; for percentage of early and late apoptotic cells: 72 h, untreated 2%", "method": "Apoptotic cell death was detected by flow cytometry using Annexin V and propidium iodide (PI). […] Cells were then harvested and prepared for flow cytometric analysis. Cells were washed in 1X binding buffer (20X binding buffer: 0.1 M HEPES, pH 7.4; 1.4 M NaCl; 25 mM CaCl2 diluted in dH2O) and incubated in the dark for 30 min on ice in Annexin V-containing binding buffer [1:100]. Cells were then washed once in binding buffer and then re-suspended in PI-containing binding buffer [1:1000]. Samples were analysed immediately using the BD accuri flow cytometer and prism software for analysis the data. Four populations are produced during the assay Annexin V and PI negative (Q4, healthy cells), Annexin V positive and PI negative (Q3, early apoptosis), Annexin V and PI positive (Q2, late apoptosis) and Annexin V negative and PI positive (Q1, necrosis)."}, "MCF-10A": {"tested_on": "MCF-10A", "assay": "MTT cell viability assay, normal epithelial breast MCF-10A cells", "assay_type": "cell-based", "details": "Homo sapiens, 72 h", "method": "The quinoline compounds were evaluated for antiproliferative effect using the MTT viability assay of four cancer cell lines (MCF-7, HCT-116, HL-60 and HeLa) and normal breast cells MCF-10A to calculate the relative IC50 values for each compound. Cells were seeded in triplicate in 96-well plates at a density of 10 × 10^3 cells/ml in a total volume of 200 µl per well. 0.1% of DMSO was used as a vehicle control. Following, the cells were treated with 2 µl test compound (from stock solutions in ethanol) to furnish the concentration range of study, 1 nM to 50 µM, and re-incubated for a further 72 h. The culture medium was then removed, and the cells washed with 100 µL phosphate buffered saline (PBS) and 50 µL MTT added, to reach a final concentration of 1 mg/mL. Cells were incubated for 2 h in darkness at 37 °C. Solubilisation was begun through the addition of […] DMSO, and the cells maintained at room temperature in darkness for 20 min to ensure thorough colour diffusion before reading the absorbance. Plates were incubated for 72 h at 37 °C + 5% CO2. The MTT (5 mg/mL in PBS) was added and incubated for another 4 h, and the optical density was detected with a microplate reader at 570 nm. Results were expressed as percentage viability relative to vehicle control (100%). […]"}, "HeLa": {"tested_on": "HeLa", "assay": "MTT cell viability assay, HeLa cervical adenocarcinoma cells", "assay_type": "cell-based", "details": "Homo sapiens, 72 h", "method": "(§1) The four human tumour cell lines MCF-7, HCT-116, HL-60 and HeLa used in this study were obtained from the VACSERA (Giza, Egypt) cell culture unit that were originally acquired from ATCC (Manassas, VA, USA). All the human tumour cell lines were cultured in Dulbecco’s Modified Eagle’s Medium (DMEM) with 10% foetal bovine serum, 2 mM L-glutamine and 100 µg/mL penicillin/streptomycin. Cells were maintained at 37 °C in 5% CO2 in a humidified incubator. All cells were sub-cultured 3 times/week by trypsinisation using TrypLE Express (1X).\n(§2) The quinoline compounds were evaluated for antiproliferative effect using the MTT viability assay of four cancer cell lines (MCF-7, HCT-116, HL-60 and HeLa) and normal breast cells MCF-10A to calculate the relative IC50 values for each compound. Cells were seeded in triplicate in 96-well plates at a density of 10 × 10^3 cells/ml in a total volume of 200 µl per well. 0.1% of DMSO was used as a vehicle control. Following, the cells were treated with 2 µl test compound (from stock solutions in ethanol) to furnish the concentration range of study, 1 nM to 50 µM, and re-incubated for a further 72 h. The culture medium was then removed, and the cells washed with 100 µL phosphate buffered saline (PBS) and 50 µL MTT added, to reach a final concentration of 1 mg/mL. Cells were incubated for 2 h in darkness at 37 °C. Solubilisation was begun through the addition of […] DMSO, and the cells maintained at room temperature in darkness for 20 min to ensure thorough colour diffusion before reading the absorbance. Plates were incubated for 72 h at 37 °C + 5% CO2. The MTT (5 mg/mL in PBS) was added and incubated for another 4 h, and the optical density was detected with a microplate reader at 570 nm. Results were expressed as percentage viability relative to vehicle control (100%). Dose response curves were plotted and IC50 values (concentration of drug resulting in 50% reduction in cell survival) were obtained using the commercial software package Prism (GraphPad Software, Inc., La Jolla, CA, USA). All the experiments were repeated in at least three independent experiments."}, "HL-60": {"tested_on": "HL-60", "assay": "MTT cell viability assay, HL-60 leukaemia cells", "assay_type": "cell-based", "details": "Homo sapiens", "method": "as §1, §2"}, "HCT-116": {"tested_on": "HCT-116", "assay": "MTT cell viability assay, HCT-116 colorectal carcinoma cells", "assay_type": "cell-based", "details": "Homo sapiens, 72 h", "method": "as §1, §2"}, "bovine brain tubulin": {"tested_on": "bovine brain tubulin", "assay": "Tubulin polymerisation assay", "assay_type": "biochemical", "details": "Tubulin was at 10 µM; read-out: Tubulin assembly IC50 (inhibition of tubulin polymerisation)", "method": "The assembly of purified bovine tubulin was monitored using a kit, BK006, purchased from Cytoskeleton Inc., (Denver, CO, USA). The assay was carried out in accordance with the manufacturer’s instructions using the standard assay conditions. Briefly, purified ([…]) in a buffer consisting of 80 mM PIPES (pH 6.9), 0.5 mM EGTA, 2 mM MgCl2, 1 mM GTP and 10% glycerol was incubated at 37 °C in the presence of either vehicle (2% (v/v) ddH2O), CA-4, or the quinoline compounds. Light is scattered proportionally to the concentration of polymerised microtubules in the assay. Therefore, tubulin assembly was monitored turbidimetrically at 340 nm in a Spectramax 340 PC spectrophotometer (Molecular Devices, Sunnyvale, CA, USA). The concentration that inhibits tubulin polymerisation by 50% (IC50) was determined using area under the curve (AUC). The AUC of the untreated controls were considered as 100% polymerisation. The IC50 value for each compound was computed using GraphPad Prism Software."}, "caspase-9": {"tested_on": "caspase-9", "assay": "Caspase-9 activation assay", "assay_type": "cell-based, human", "method": "The level of the anti-apoptotic marker and apoptotic marker BAX were assessed using Bcl-2 Elisa kit and human Bax ELISA Kit purchased from Zymed laboratories, invitrogen and Cloud-Clone Crop. (Katy, TX, USA), respectively, following the manufacturer’s instructions. Briefly, Treated MCF-7 cell lysate with 250 nM of compound 12c were prepared, and equal amount of cell lysates were loaded and propped with specific antibodies. The samples were measured and analysed at 450 nm in ROBONEK P2000 ELISA reader. In Vitro Caspase-9 Activation Assay was performed using human active caspase-9 Invitrogen EIA kit according to the manufacturer’s instructions. Compound 12c at concentrations of 50 and 250 nM and CA-4 (50 nM) were prepared in dH2O up to a final volume of 50 µL/well followed by addition of 5 µL of active caspase-9. Following, the cells were mixed and 50 µL of the Master Mix was added to each well and allowed to react at 37 °C for 1 h. The fluorescence intensity of the test samples was recorded and analysed in a fluorescence plate reader at 400 nm excitation and 505 nm emissions. All experiments were conducted in triplicates."}, "[3]": {"details": "72 h, read-out: IC50 value, HL-60"}},
  "note": "Where two headings read alike, the source gives them in different places.",
  "data": [
    {"smiles": "COc1ccc(/C=C\\c2cc(OC)c(OC)c(OC)c2)cc1O", "note": "[CA-4, Combretastatin A-4]", "values": [
      {"measurement": "apoptosis, proportion of cells in sub-G1 phase", "setting": "MCF-7 cells [1]; 50 nM, 24 h", "value": 23.5, "unit": "%"},
      {"measurement": "percentage of cells in G2/M phase", "setting": "MCF-7 cells [1]; 50 nM, 24 h", "value": 40.3, "unit": "%"},
      {"measurement": "apoptosis, proportion of cells in sub-G1 phase", "setting": "MCF-7 cells [1]; 50 nM, 48 h", "value": 31.1, "unit": "%"},
      {"measurement": "percentage of cells in G2/M phase", "setting": "MCF-7 cells [1]; 50 nM, 48 h, untreated 9.2%", "value": 43.8, "unit": "%"},
      {"measurement": "apoptosis, proportion of cells in sub-G1 phase", "setting": "MCF-7 cells [1]; 50 nM, 72 h", "value": 37.4, "unit": "%"},
      {"measurement": "percentage of cells in G2/M phase", "setting": "MCF-7 cells [1]; 50 nM, 72 h", "value": 47.7, "unit": "%"},
      {"measurement": "percentage of Annexin V-staining positive cells", "setting": "MCF-7 cells [2]; 50 nM", "value": 29, "unit": "%"},
      {"measurement": "IC50", "setting": "MCF-10A", "value": 6100, "unit": "nM"},
      {"measurement": "IC50", "setting": "HeLa", "value": "64 ± 4", "unit": "nM"},
      {"measurement": "IC50", "setting": "HL-60; [3]", "value": "76 ± 4", "unit": "nM"},
      {"measurement": "IC50", "setting": "HCT-116", "value": "26 ± 1", "unit": "nM"},
      {"measurement": "IC50", "setting": "bovine brain tubulin", "value": "[…]"},
      {"measurement": "increase in caspase-9 activation", "setting": "caspase-9; MCF-7, 50 nM", "value": 14, "unit": "fold"}
    ]},
    {"smiles": "COc1cc(C2=NC(=Cc3cc4ccc(C)cc4nc3OC)C(=O)O2)cc(OC)c1OC", "note": "[Compound 12c, 4-[(2-Methoxy-7-methylquinolin-3-yl)methylene]-2–(3,4,5-trimethoxyphenyl) oxazol-5(4H)-one]", "values": [
      {"measurement": "percentage of cells in G2/M phase", "setting": "MCF-7 cells [1]; 50 nM, 48 h, untreated 9.2%", "value": 28.4, "unit": "%"},
      {"measurement": "percentage of cells in G2/M phase", "setting": "MCF-7 cells [1]; 50 nM, 72 h", "value": 33.0, "unit": "%"},
      {"measurement": "percentage of cells in G0/G1 phase", "setting": "MCF-7 cells [1]; 50 nM, 72 h", "value": 40.3, "unit": "%"},
      {"measurement": "apoptosis, proportion of cells in sub-G1 phase", "setting": "MCF-7 cells [1]; 250 nM, 24 h, untreated 1.5%", "value": 16.2, "unit": "%"},
      {"measurement": "apoptosis, proportion of cells in sub-G1 phase", "setting": "MCF-7 cells [1]; 250 nM, 48 h, untreated 1.5%", "value": 23.4, "unit": "%"},
      {"measurement": "percentage of cells in G2/M phase", "setting": "MCF-7 cells [1]; 250 nM, 48 h, untreated 9.2%", "value": 38.3, "unit": "%"},
      {"measurement": "percentage of cells in G2/M phase", "setting": "MCF-7 cells [1]; 250 nM, 72 h", "value": 40.8, "unit": "%"},
      {"measurement": "percentage of cells in G0/G1 phase", "setting": "MCF-7 cells [1]; 250 nM, 72 h", "value": 29.8, "unit": "%"},
      {"measurement": "apoptosis, proportion of cells in sub-G1 phase", "setting": "MCF-7 cells [1]; 250 nM, 72 h, untreated 1.5%", "value": 32.7, "unit": "%"},
      {"measurement": "percentage of Annexin V-staining positive cells", "setting": "MCF-7 cells [2]; 250 nM", "value": 21, "unit": "%"},
      {"measurement": "percentage of Annexin V-staining positive cells", "setting": "MCF-7 cells [2]; concentration printed as 0 nM", "value": 15, "unit": "%"},
      {"measurement": "percentage of early and late apoptotic cells", "setting": "MCF-7 cells [2]; concentration printed as 1 µM", "value": 17.6, "unit": "%"},
      {"measurement": "percentage of early and late apoptotic cells", "setting": "MCF-7 cells [2]; concentration printed as 5 µM", "value": 29.3, "unit": "%"},
      {"measurement": "IC50", "setting": "MCF-10A", "value": "> 50000", "unit": "nM"},
      {"measurement": "IC50", "setting": "HeLa", "value": "42 ± 1", "unit": "nM"},
      {"measurement": "IC50", "setting": "HL-60; [3]", "value": 19, "unit": "nM"},
      {"measurement": "IC50", "setting": "HL-60; read-out: IC50, HL-60", "value": 10, "unit": "nM"},
      {"measurement": "IC50", "setting": "HCT-116", "value": "22 ± 1", "unit": "nM"},
      {"measurement": "IC50", "setting": "bovine brain tubulin", "value": 1210, "unit": "nM"},
      {"measurement": "increase in caspase-9 activation", "setting": "caspase-9; MCF-7, 50 nM", "value": "about 8 fold"},
      {"measurement": "increase in caspase-9 activation", "setting": "caspase-9; MCF-7, 250 nM", "value": "~16", "unit": "fold"}
    ]}
  ]
}
